Measurements published in patent US9233961B2, “Compounds and compositions for the treatment of parasitic diseases” (Novartis AG, priority 2013, dated 2016).
Where two headings read alike, the source gives them in different places.

How the values were obtained:
[1] = system: L. donovani HU3 strain in mouse peritoneal macrophages; assay: Assay for proliferation of Leishmania parasites in mouse peritoneal macrophages; assay type: cell-based, Leishmania donovani; details: Leishmania donovani, Peritoneal macrophage
Outline: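 BALB/c peritoneal macrophages infected 24 h with L. donovani HU3 amastigotes taken from spleens of mice infected 9–11 weeks, then treated with compound for 5 days at 37° C, 5% CO2. Parasite nuclei counted by SYBR Green imaging after fixation; EC50 from percentage inhibition.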

[2] = system: Leishmania donovani axenic amastigote parasites; assay: Leishmania donovani axenic amastigote proliferation assay; assay type: cell-based; details: read-out: L. donovani amastigotes EC50
Outline: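 L. donovani axenic amastigotes (9600/well) in RPMI 1640 with 20% heat-inactivated FBS, folic acid, adenosine, glucose and 25 mM MES, pH 5.5, were incubated with compounds for 2 days at 37 °C, 5% CO2. Viability read by CellTiter-Glo luminescence; EC50 calculated.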

[3] = read-out: L. donavani Macrophage EC50
[4] = read-out: L. donavani Macrophage EC50 (μM)

## CC(C)OC(=O)Nc1ccc(-c2cnc3nc(-c4cc(NC(=O)Nc5ccc(C(F)(F)F)cc5)ccc4F)oc3c2)cc1 [Compound 396]
[1]; [3]
  EC50: > 50 µM
[2]; axenic amastigotes in vitro
  EC50: 16.1 µM

## O=C(Nc1ccc(C(F)(F)F)cc1)Nc1ccc(F)c(-c2nc3ncc(N4CCCCC4)cc3o2)c1 [Compound 397]
[1]; [3]
  EC50: > 30 µM
[2]; axenic amastigotes in vitro
  EC50: > 25 µM

## O=C(Nc1ccc(C(F)(F)F)cc1)Nc1ccc(F)c(-c2nc3ncc(-c4ccc(N5CCCCC5)cc4)cc3o2)c1 [Compound 399]
[1]; [3]
  EC50: 5.9 µM
[2]; axenic amastigotes in vitro
  EC50: 15.8 µM

## Nc1ccc(-c2cnc3nc(-c4cc(NC(=O)Nc5ccc(C(F)(F)F)cc5)ccc4F)oc3c2)cn1 [Compound 400]
[1]; [3]
  EC50: 4 µM
[2]; axenic amastigotes in vitro
  EC50: 1.62 µM

## CC(=O)Nc1ccc(-c2cnc3nc(-c4cc(NC(=O)Nc5ccc(C(F)(F)F)cc5)ccc4F)oc3c2)cc1 [Compound 401]
[1]; [3]
  EC50: 3.12 µM
[2]; axenic amastigotes in vitro
  EC50: 4.7 µM

## COC(=O)Nc1ccc(-c2cnc3nc(-c4cc(NC(=O)Nc5ccc(C(F)(F)F)cc5)ccc4F)oc3c2)cc1 [Compound 402]
[1]; [3]
  EC50: 10 µM
[2]; axenic amastigotes in vitro
  EC50: > 24 µM

## CN(C)c1ccc(-c2cnc3nc(-c4cc(NC(=O)Nc5ccc(C(F)(F)F)cc5)ccc4F)oc3c2)cn1 [Compound 403]
[1]; [3]
  EC50: > 50 µM
[2]; axenic amastigotes in vitro
  EC50: 17.4 µM

## CCc1noc(C(=O)Nc2ccc(F)c(-c3nc4ncc(Br)cc4o3)c2)n1 [Compound 405]
[1]; [3]
  EC50: > 50 µM
[2]; axenic amastigotes in vitro
  EC50: > 25 µM

## CC(C)c1nnc(C(=O)Nc2ccc(F)c(-c3nc4ncc(Br)cc4o3)c2)o1 [Compound 406]
[1]; [3]
  EC50: > 50 µM
[2]; axenic amastigotes in vitro
  EC50: > 25 µM

## CC(C)(C)c1nnc(C(=O)Nc2ccc(F)c(-c3nc4ncc(Br)cc4o3)c2)o1 [Compound 407]
[1]; [3]
  EC50: > 4.2 µM
[2]; axenic amastigotes in vitro
  EC50: > 25 µM

## O=C(Nc1ccc(F)c(-c2nc3ncc(Br)cc3o2)c1)c1cnco1 [Compound 408]
[1]; [3]
  EC50: > 50 µM
[2]; axenic amastigotes in vitro
  EC50: 3.8 µM

## Cc1ncoc1C(=O)Nc1ccc(F)c(-c2nc3ncc(Br)cc3o2)c1 [Compound 409]
[1]; [3]
  EC50: > 50 µM
[2]; axenic amastigotes in vitro
  EC50: 7.5 µM

## O=C(Nc1ccc(F)c(-c2nc3ncc(Br)cc3o2)c1)c1cocn1 [Compound 410]
[1]; [3]
  EC50: > 50 µM
[2]; axenic amastigotes in vitro
  EC50: > 25 µM

## COC(=O)Nc1ccc(-c2cnc3nc(-c4cc(NC(=O)c5ccco5)ccc4F)oc3c2)cc1 [Compound 414]
[1]; [4]
  EC50: 1.17 µM
[2]; axenic amastigotes in vitro
  EC50: 0.2 µM

## Cc1cnc2nc(-c3cc(NC(=O)c4ccco4)ccc3Cl)[nH]c2c1 [Example 1, N-(4-chloro-3-{6-methyl-1H-imidazo[4,5-b]pyridin-2-yl}phenyl)furan-2-carboxamide]
[1]; [3]
  EC50: 9 µM
[2]; axenic amastigotes in vitro
  EC50: 2.2 µM

## O=C(Nc1ccc(Cl)c(-c2nc3ncc(-c4ccc(CCN5CCOCC5)cc4)cc3[nH]2)c1)c1ccco1 [Example 6, N-[4-chloro-3-(6-{4-[2-(morpholin-4-yl)ethyl]phenyl}-1H-imidazo[4,5-b]pyridin-2-yl)phenyl]furan-2-carboxamide]
[1]; [3]
  EC50: 0.65 µM
[2]; axenic amastigotes in vitro
  EC50: 1.96 µM

## C=Cc1cnc2nc(-c3cc(NC(=O)c4ccco4)ccc3Cl)[nH]c2c1 [Example 74, N-(4-chloro-3-{6-ethenyl-1H-imidazo[4,5-b]pyridin-2-yl}phenyl)furan-2-carboxamide]
[1]; [3]
  EC50: 3.09 µM
[2]; axenic amastigotes in vitro
  EC50: 0.45 µM

## CCCc1cnc2nc(-c3cc(NC(=O)c4ccco4)ccc3Cl)[nH]c2c1 [Example 75, N-(4-chloro-3-{6-propyl-1H-imidazo[4,5-b]pyridin-2-yl}phenyl)furan-2-carboxamide]
[1]; [3]
  EC50: 25.6 µM
[2]; axenic amastigotes in vitro
  EC50: 9.3 µM

## O=C(Nc1ccc(Cl)c(-c2nc3ncc(C(F)(F)F)cc3[nH]2)c1)c1ccco1 [Example 276, N-{4-Chloro-3-[6-(trifluoromethyl)-1H-imidazo[4,5-b]pyridin-2-yl]phenyl}furan-2-carboxamide]
[1]; [3]
  EC50: 6 µM
[2]; axenic amastigotes in vitro
  EC50: 1.56 µM

## CC(C)OC(=O)Nc1ccc(Cl)c(-c2nc3ncc(C#N)cc3[nH]2)c1 [Example 287, Propan-2-yl N-(4-chloro-3-{6-cyano-1H-imidazo[4,5-b]pyridin-2-yl}phenyl)carbamate]
[1]; 120 h, L. donovani in mouse peritoneal macrophages, 5 days culture, SybrGreen parasite nuclei count, read-out: EC50
  EC50: ~0.08 µM
[1]; [3]
  EC50: 0.078 µM
[2]; axenic amastigotes in vitro
  EC50: 1.44 µM

## O=C(Nc1ccc(F)c(-c2nc3ncc(-c4ccccc4)cc3[nH]2)c1)N1CCCC1 [Example 309, N-(4-fluoro-3-{6-phenyl-1H-imidazo[4,5-b]pyridin-2-yl}phenyl)pyrrolidine-1-carboxamide]
[1]; [3]
  EC50: 4.5 µM
[2]; axenic amastigotes in vitro
  EC50: 1.97 µM

## CC(C)OC(=O)Nc1ccc(Cl)c(-c2nc3ncc(-c4ccccc4)cc3[nH]2)c1 [Example 333, Propan-2-yl N-(4-chloro-3-{6-phenyl-1H-imidazo[4,5-b]pyridin-2-yl}phenyl)carbamate]
[1]; [3]
  EC50: 0.048 µM
[2]; axenic amastigotes in vitro
  EC50: 0.66 µM

## COC(=O)Nc1ccc(-c2cnc3nc(-c4cc(NC(=O)N5CCC(F)(F)C5)ccc4Cl)[nH]c3c2)cc1 [Example 343, Methyl N-[4-(2-{2-chloro-5-[(3,3-difluoropyrrolidin-1-yl)carbonylamino]phenyl}-1H-imidazo [4,5-b]pyridin-6-yl)phenyl]carbamate]
[1]; [3]
  EC50: 0.51 µM
[2]
  EC50: 0.245 µM

## O=C(Nc1ccc(F)c(-c2nc3ncc(Cl)cc3[nH]2)c1)c1ccco1 [Example 357, N-(3-{6-chloro-1H-imidazo[4,5-b]pyridin-2-yl}-4-fluorophenyl)furan-2-carboxamide]
[1]; [3]
  EC50: 2.51 µM
[2]; axenic amastigotes in vitro
  EC50: 0.6 µM

## CN(C)Cc1ccc(C(=O)Nc2ccc(Cl)c(-c3nc4ncc(Br)cc4[nH]3)c2)o1 [Example 372, N-(3-{6-bromo-1H-imidazo[4,5-b]pyridin-2-yl}-4-chlorophenyl)-5-[(dimethylamino)methyl]furan-2-carboxamide]
[1]; [3]
  EC50: 2.52 µM
[2]; axenic amastigotes in vitro
  EC50: > 25 µM

## Cc1ccc(C(=O)Nc2ccc(F)c(-c3nc4ncc(-c5ccccc5)cc4[nH]3)c2)o1 [Example 380, N-(4-fluoro-3-{6-phenyl-1H-imidazo[4,5-b]pyridin-2-yl}phenyl)-5-methylfuran-2-carboxamide]
[1]; [3]
  EC50: 3.3 µM
[2]; axenic amastigotes in vitro
  EC50: 5.7 µM

## Cc1ccc(C(=O)Nc2ccc(F)c(-c3nc4ncc(-c5ccsc5)cc4[nH]3)c2)o1 [Example 381, N-{4-fluoro-3-[6-(thiophen-3-yl)-1H-imidazo[4,5-b]pyridin-2-yl]phenyl}-5-methylfuran-2-carboxamide]
[1]; [3]
  EC50: 1.6 µM
[2]; axenic amastigotes in vitro
  EC50: 2.5 µM

## COCn1c(-c2cc(NC(=O)N3CCCC3)ccc2Cl)nc2cc(Br)cnc21 [Example 385, N-{3-[6-bromo-3-(methoxymethyl)-3H-imidazo[4,5-b]pyridin-2-yl]-4-chlorophenyl}pyrrolidine-1-carboxamide]
[1]; [3]
  EC50: > 10.9 µM
[2]
  EC50: > 23.2 µM

## COCn1c(-c2cc(NC(=O)N3CCCC3)ccc2Cl)nc2ncc(Br)cc21 [Example 386]
[1]; [3]
  EC50: 4.3 µM
[2]; axenic amastigotes in vitro
  EC50: 4.3 µM

## O=C(Nc1ccc(C(F)(F)F)cc1)Nc1ccc(F)c(-c2nc3ncc(-c4ccc(CCN5CCOCC5)cc4)cc3o2)c1 [Example 389, 3-[4-Fluoro-3-(6-{4-[2-(morpholin-4-yl)ethyl]phenyl}-[3]oxazolo[4,5-b]pyridin-2-yl)phenyl]-1-[4-(trifluoromethyl)phenyl]urea]
[1]; [3]
  EC50: 11.4 µM
[2]; axenic amastigotes in vitro
  EC50: 11.6 µM

## CCc1nnc(C(=O)Nc2ccc(F)c(-c3nc4ncc(Br)cc4o3)c2)o1 [Example 404, N-(3-{6-bromo-[1,3]oxazolo[4,5-b]pyridin-2-yl}-4-fluorophenyl)-5-ethyl-1,3,4-oxadiazole-2-carboxamide]
[1]; [3]
  EC50: > 50 µM
[2]; axenic amastigotes in vitro
  EC50: > 25 µM

## O=C(Nc1ccc(F)c(-c2nc3ncc(-c4ccccc4)cc3o2)c1)N1CCCC1 [Example 415, N-(4-fluoro-3-{6-phenyl-[1,3]oxazolo[4,5-b]pyridin-2-yl}phenyl)pyrrolidine-1-carboxamide]
[1]; [4]
  EC50: 0.1 µM
[2]; axenic amastigotes in vitro
  EC50: 0.4 µM

## O=C(Nc1ccc(Cl)c(-c2nc3ncc(-c4ccccc4)cc3o2)c1)c1ccco1 [Example 416, N-(4-chloro-3-{6-phenyl-[1,3]oxazolo[4,5-b]pyridin-2-yl}phenyl)-furan-2-carboxamide]
[1]; [4]
  EC50: 2.9 µM
[2]; axenic amastigotes in vitro
  EC50: 1.52 µM

## Cc1cnc2nc(-c3cc(NC(=O)c4ccco4)ccc3Cl)oc2c1 [Example 418, N-(4-chloro-3-{6-methyl-[1,3]oxazolo[4,5-b]pyridin-2-yl}phenyl)-furan-2-carboxamide]
[1]; [4]
  EC50: 8.4 µM
[2]; axenic amastigotes in vitro
  EC50: 1.51 µM

## CCc1cnc2nc(-c3cc(NC(=O)c4ccco4)ccc3Cl)oc2c1 [Example 419, N-(4-chloro-3-{6-ethyl-[1,3]oxazolo[4,5-b]pyridin-2-yl}phenyl)-furan-2-carboxamide]
[1]; [4]
  EC50: 2.46 µM
[2]; axenic amastigotes in vitro
  EC50: 0.36 µM

## CN(C)c1ccc(F)c(-c2nc3ncc(-c4ccc(OCCN5CCOCC5)cc4)cc3o2)c1 [Example 420, 4-Fluoro-N,N-dimethyl-3-(6-{4-[2-(morpholin-4-yl)ethoxy]phenyl}-[1,3]oxazolo[4,5-b]pyridin-2-yl)aniline]
[1]; [4]
  EC50: > 50 µM
[2]; axenic amastigotes in vitro
  EC50: > 25 µM

## CNc1ccc(F)c(-c2nc3ncc(-c4ccc(OCCN5CCOCC5)cc4)cc3o2)c1 [Example 421, 4-Fluoro-N-methyl-3-(6-{4-[2-(morpholin-4-yl)ethoxy]phenyl}-[1,3]oxazolo[4,5-b]pyridin-2-yl)aniline]
[1]; [4]
  EC50: > 50 µM
[2]; axenic amastigotes in vitro
  EC50: > 25 µM
